Experimental data: US12427166B2, “Antifungal agent” (priority 2015, dated 2025)
Converted amounts (≈) assume the structure as drawn. Read-outs that look alike come from different tables or passages of the source.

Tests used:
Test in all cases: EUCAST micro broth dilution in vitro susceptibility testing
Format in all cases: cell-based
[1] = tested on: Fusarium Proliferatum (clinical sample)
Method: (§1) The antifungal activity of a composition comprising Poly-(hexamethylene-guanidium chloride) and N,N-didecyl-N-methyl-poly(oxyethyl) ammonium propionate in a ratio of about 1:1 with respect to the molar amount was tested on wild type Aspergillus fumigatus (ATCC 204305) and azole resistant strains (TR 34/L98H and TR46/Y121F/T289A) as well as one clinical sample of Fusarium proliferatum and one clinical sample of Scedosporium Apiospermum was evaluated by means of EUCAST micro broth dilution1. This test method is currently recognized as the gold standard for in vitro susceptibility testing of filamenteus fungi. The test drug was diluted 1:30 in RPMI 1640 in order to obtain a max test concentration of 100 PPM. The test was performed three times for each test strain. The test drug was tested in the concentration range from 1-100 ppm.

[2] = tested on: Aspergillus fumigatus TR46/Y121F/T289A (azole resistant)
Method: as §1

[3] = tested on: Aspergillus fumigatus TR34/L98H (azole resistant)
Method: as §1

[4] = tested on: Aspergillus fumigatus ATCC 204305 (wild type)
Method: as §1

[5] = tested on: Scedosporium Apiospermum (clinical sample)
Method: as §1

[6] = Aspergillus fumigatus TR46/Y121F/T289A
[7] = Aspergillus fumigatus TR34/L98H

C[C@@H]1[C@H](O)[C@@H](C)/C=C/C=C/C=C/C=C/C=C/C=C/C=C/[C@H](O[C@@H]2O[C@H](C)[C@@H](O)[C@H](N)[C@@H]2O)C[C@@H]2O[C@](O)(C[C@@H](O)C[C@@H](O)[C@H](O)CC[C@@H](O)C[C@@H](O)CC(=O)O[C@H]1C)C[C@H](O)[C@H]2C(=O)O [Amphotericin B]
MIC [1]: 1 µg/mL (≈ 1.08 µM) | MIC [2, 6]: 0.25 µg/mL (≈ 0.271 µM) | MIC [3, 7]: 0.25 µg/mL (≈ 0.271 µM) | MIC [4]: 0.25 µg/mL (≈ 0.271 µM) | MIC [5]: 4 µg/mL (≈ 4.33 µM)

CCC(C)n1ncn(-c2ccc(N3CCN(c4ccc(OCC5COC(Cn6cncn6)(c6ccc(Cl)cc6Cl)O5)cc4)CC3)cc2)c1=O (stereo not shown) [Itraconazol]
MIC ([1]; read-out: MIC): > 8 µg/mL | MIC ([2]; Aspergillus fumigatus): 1 µg/mL (≈ 1.42 µM) | MIC ([3]; Aspergillus fumigatus): > 8 µg/mL | MIC [4]: 0.125 µg/mL (≈ 0.177 µM) | MIC ([5]; read-out: MIC): 0.25 µg/mL (≈ 0.354 µM)

C[C@@H]1C/C=C/C=C/C=C/C=C/[C@H](O[C@@H]2O[C@H](C)[C@@H](O)[C@H](N)[C@@H]2O)C[C@@H]2O[C@](O)(C[C@@H](O)C[C@H]3O[C@@H]3/C=C/C(=O)O1)C[C@H](O)[C@H]2C(=O)O [Natamycin]
MIC ([1]; read-out: MIC): 4 µg/mL (≈ 6.01 µM) | MIC ([2]; Aspergillus fumigatus): 2 µg/mL (≈ 3 µM) | MIC ([3]; Aspergillus fumigatus): 4 µg/mL (≈ 6.01 µM) | MIC ([4]; ATCC204305, read-out: MIC): 4 µg/mL (≈ 6.01 µM) | MIC ([5]; read-out: MIC): 2 µg/mL (≈ 3 µM)

CN(C/C=C/C#CC(C)(C)C)Cc1cccc2ccccc12 [Terbinafin]
MIC [1]: 1 µg/mL (≈ 3.43 µM) | MIC [2, 6]: 2 µg/mL (≈ 6.86 µM) | MIC [3, 7]: 4 µg/mL (≈ 13.7 µM) | MIC [4]: 2 µg/mL (≈ 6.86 µM) | MIC [5]: >16 µg/mL

C[C@@H](c1ncncc1F)[C@](O)(Cn1cncn1)c1ccc(F)cc1F [Voriconazol]
MIC ([1]; read-out: MIC): 4 µg/mL (≈ 11.5 µM) | MIC ([2]; Aspergillus fumigatus): > 16 µg/mL | MIC ([3]; Aspergillus fumigatus): 4 µg/mL (≈ 11.5 µM) | MIC ([4]; ATCC204305, read-out: MIC): 0.5 µg/mL (≈ 1.43 µM) | MIC ([5]; read-out: MIC): 0.25 µg/mL (≈ 0.716 µM)
